Holding throughout (type): functional
For experiment [1], the system named is Mus musculus. The experiment in a line: Antihypoxic effect tested by the ratio of survival time (SVT) of test mice to that of control group, dosed orally 30 mg/kg. Conditions: route oral.
Experiment [2] deals with Mus musculus. The experiment in a line: Time of recovery of righting reflux (RRT) in seconds was measured after oral administration of 30 mg/kg in mice for the promotional effect on recovery from coma.
For experiment [3], the system named is Mus musculus. Description: Spontaneous movement (SMT) in seconds, was measured after oral administration of 30 mg/kg in mice to test for promoting effects on recovery from coma.
Experiment [4] relates to Mus musculus. The experiment in a line: Antihypoxic effect tested by the ratio of survival time (SVT) of test mice to that of control group, dosed intraperitoneally at 30 mg/kg. The following applies: route intraperitoneal.

36 compounds from ChEMBL document CHEMBL1125278, “Novel cerebroprotective agents with central nervous system stimulating activity. 2. Synthesis and pharmacology of the 1-(acylamino)-7-hydroxyindan derivatives” (1991) can be followed below.

As for `Cc1cc(C)c2c(c1O)C(NC(=O)CN1CCN(c3ccc(F)cc3)CC1)C(C)(C)C2` (configuration not stated), the SVT in experiment [1] was determined as 96.2%. Besides, the RRT in experiment [2] is listed as 110.5 s. Moreover, the SMT in experiment [3] was determined as 121.4 s.

As to `COc1ccccc1N1CCN(CC(=O)NC2c3c(O)c(C)cc(C)c3CC2(C)C)CC1` (configuration not stated), in experiment [1], the SVT is 94.4%. The same compound registered an RRT in experiment [2] of 97.2 s. The SMT in experiment [3] was 117.3 s.

For the compound `Cc1cc(C)c2c(c1O)C(NC(=O)CN1CCN(c3cc(Cl)ccc3Cl)CC1)C(C)(C)C2` (configuration not stated), the SVT in experiment [1] is 100%. In experiment [2], this compound yielded an RRT of 73.6 s. Moreover, the SMT in experiment [3] is 69.4 s.

`COc1cccc(N2CCN(CC(=O)NC3CCc4c(C)cc(C)c(O)c43)CC2)c1` (configuration not stated): in experiment [1], the SVT amounted to 77.2%. This compound returned an RRT in experiment [2] of 64.2 s. In experiment [3], this compound came in with an SMT of 54.7 s.

Turning to `Cc1cc(C)c2c(c1O)C(NC(=O)CN1CCSCC1)C(C)(C)C2` (configuration not stated), the RRT in experiment [2] is given as 110.8 s. For the same compound, the SVT in experiment [4] came to 100.8%. The compound further displayed an SMT in experiment [3] of 119.9 s.

As for `Cc1ccccc1C1Cc2c(C)cc(C)c(O)c2C1NC(=O)CN1CCN(c2cccc(Cl)c2)CC1` (configuration not stated), the SVT in experiment [1] is on record as 123.7%. Moreover, in experiment [2], the RRT is on record as 75.1 s. In addition, the SMT in experiment [3] stood at 66 s.

The compound `COc1cccc(N2CCN(C(=O)CNC3c4c(O)c(C)cc(C)c4CC3(C)C)CC2)c1` (configuration not stated) had an RRT in experiment [2] of 84 s. In addition, the SVT in experiment [4] is 97.7%. The SMT in experiment [3] amounted to 111 s.

For `COc1cccc(N2CCN(CC(=O)NC3c4c(c(C)cc(C)c4OC)CC3(C)C)CC2)c1` (configuration not stated), the SVT in experiment [1] came to 93.4%. The same compound returned an RRT in experiment [2] of 72.6 s. The SMT in experiment [3] is recorded as 61.8 s.

With `Cc1cc(C)c2c(c1O)C(NC(=O)CN1CCCC1C(=O)O)C(C)(C)C2` (configuration not stated), the SVT in experiment [1] is recorded as 92.3%. This compound also returned an RRT in experiment [2] of 103.3 s. Also, the SMT in experiment [3] amounted to 150.3 s.

`Cc1ccc(Cl)cc1N1CCN(CC(=O)NC2c3c(O)c(C)cc(C)c3CC2(C)C)CC1` (configuration not stated): the SVT in experiment [1] worked out at 103.2%. For the same compound, in experiment [2], the RRT is given as 91.7 s. In experiment [3], this compound displayed an SMT of 74 s.

Regarding `Cc1cc(C)c2c(c1O)C(NC(=O)CN1CCN(c3ccc([N+](=O)[O-])cc3)CC1)C(C)(C)C2` (configuration not stated), the SVT in experiment [1] worked out at 107.9%. In experiment [2], this compound registered an RRT of 99.5 s. Moreover, the SMT in experiment [3] was determined as 90.6 s.

As for `Cc1cc(C)c2c(c1O)C(NC(=O)CN1CCCCC1)C(C)(C)C2` (configuration not stated), in experiment [2], the RRT is on record as 100.7 s. The SVT in experiment [4] was 112.7%. Further, the SMT in experiment [3] is recorded as 84.2 s.

As to `Cc1cc(C)c(N2CCN(CC(=O)NC3c4c(O)c(C)cc(C)c4CC3(C)C)CC2)c(C)c1` (configuration not stated), the SVT in experiment [1] was determined as 100.3%. The compound further came in with an RRT in experiment [2] of 87.6 s. In experiment [3], this compound registered an SMT of 84 s.

For the compound `COc1cccc(N2CCN(CC(=O)NC3c4c(O)c(C)cc(C)c4CC3Cc3ccccc3)CC2)c1` (configuration not stated), the SVT in experiment [1] stood at 123.1%.

Take `Cc1cc(C)c2c(c1O)C(NC(=O)CN1CCN(c3ccccc3Cl)CC1)C(C)(C)C2` (configuration not stated): the SVT in experiment [1] is listed as 117.3%. Also, the RRT in experiment [2] was 86.5 s. In experiment [3], this compound showed an SMT of 77.2 s.

In the case of `Cc1cc(C)c2c(c1O)C(NC(=O)CN1CCN(c3cc(Cl)cc(Cl)c3)CC1)C(C)(C)C2` (configuration not stated), the SVT in experiment [1] is reported as 106.4%. Moreover, the RRT in experiment [2] was 76.1 s. For the same compound, the SMT in experiment [3] amounted to 71.1 s.

In experiment [2], `Cc1cc(C)c2c(c1O)C(NCC(=O)N1CCN(c3cccc(Cl)c3)CC1)C(C)(C)C2` (configuration not stated) showed an RRT of 116.3 s. Moreover, in experiment [4], the SVT worked out at 146.8%. In experiment [3], this compound gave an SMT of 95.2 s.

Regarding `Cc1cc(C)c2c(c1O)C(NC(=O)CN1CCN(c3ccc(Cl)c(Cl)c3)CC1)C(C)(C)C2` (configuration not stated), in experiment [1], the SVT is given as 100.1%. For the same compound, in experiment [2], the RRT came to 93.2 s. Moreover, the SMT in experiment [3] amounted to 108.2 s.

With `COc1ccc(N2CCN(CC(=O)NC3c4c(O)c(C)cc(C)c4CC3(C)C)CC2)cc1` (configuration not stated), in experiment [1], the SVT is listed as 100.6%. In addition, in experiment [2], the RRT turned out to be 82.3 s. The same compound registered an SMT in experiment [3] of 63.1 s.

In the case of `COc1ccc(N2CCN(CC(=O)NC3c4c(O)c(C)cc(C)c4CC3(C)C)CC2)cc1OC` (configuration not stated), the SVT in experiment [1] was determined as 85.7%. This compound showed an RRT in experiment [2] of 59.5 s. In addition, the SMT in experiment [3] is listed as 81 s.

Turning to `Cc1cccc(N2CCN(CC(=O)NC3CCc4c(C)cc(C)c(O)c43)CC2)c1C` (configuration not stated), the SVT in experiment [4] is given as 134.3%.

`Cc1cc(C)c2c(c1O)C(NC(=O)CN1CCN(c3cccc(C(F)(F)F)c3)CC1)C(C)(C)C2` (configuration not stated): the SVT in experiment [1] is reported as 107.8%. This compound came in with an RRT in experiment [2] of 89.5 s. The SMT in experiment [3] is 83.7 s.

For `COc1cccc(N2CCN(CC(=O)NC3c4c(O)c(C)cc(C)c4CC3c3ccc(Cl)cc3)CC2)c1` (configuration not stated), the SVT in experiment [1] is listed as 91.7%. For the same compound, the RRT in experiment [2] worked out at 80.1 s. Besides, the SMT in experiment [3] worked out at 94.3 s.

`Cc1cc(C)c2c(c1O)C(NC(=O)CN1CCN(c3cccc(Cl)c3)CC1)C(c1ccc(Cl)cc1)C2` (configuration not stated): in experiment [1], the SVT is recorded as 81.3%. Further, the RRT in experiment [2] turned out to be 98 s. The SMT in experiment [3] amounted to 99.4 s.

Regarding `Cc1ccc(C(=O)NC2CCc3c(C)cc(C)c(O)c32)cc1` (configuration not stated), in experiment [4], the SVT is reported as 68.8%.

Turning to `CCCc1cc(C)c2c(c1O)C(NC(=O)CN1CCN(c3cccc(OC)c3)CC1)C(C)(C)C2` (configuration not stated), the SVT in experiment [1] is given as 95%. In experiment [2], the RRT stood at 114.6 s. The SMT in experiment [3] is reported as 107.2 s.

Regarding `CCOc1ccccc1N1CCN(CC(=O)NC2c3c(O)c(C)cc(C)c3CC2(C)C)CC1` (configuration not stated), in experiment [1], the SVT was 130.4%. The RRT in experiment [2] was 90.3 s. The SMT in experiment [3] came to 71.8 s.

Turning to `COc1cccc(N2CCN(CC(=O)NC3c4c(O)c(C)cc(C)c4CC3c3ccccc3)CC2)c1` (configuration not stated), the SVT in experiment [1] came to 78.3%. Moreover, in experiment [2], the RRT is on record as 82 s. In experiment [3], this compound returned an SMT of 80.6 s.

As for `Cc1cc(C)c2c(c1O)C(NC(=O)Cn1ccnc1)C(C)(C)C2` (configuration not stated), the SVT in experiment [1] worked out at 71.8%. This compound showed an RRT in experiment [2] of 76.8 s. In experiment [3], this compound returned an SMT of 66.4 s.

Regarding `Cc1cc(C)c2c(c1O)C(NC(=O)CN1CCN(c3cccc(F)c3)CC1)C(C)(C)C2` (configuration not stated), the SVT in experiment [1] is recorded as 122.7%. This compound showed an RRT in experiment [2] of 82.8 s. In experiment [3], the SMT stood at 72.3 s.

Consider `Cc1cc(C)c2c(c1O)C(NC(=O)CN1CCN(c3cccc(Cl)c3Cl)CC1)C(C)(C)C2` (configuration not stated), for which the SVT in experiment [1] turned out to be 94.6%. Further, in experiment [2], the RRT was found to be 99.2 s. This compound had an SMT in experiment [3] of 126.6 s.

In the case of `Cc1cc(C)c2c(c1O)C(NC(=O)CN1CCN(c3ccccc3F)CC1)C(C)(C)C2` (configuration not stated), the SVT in experiment [1] is 99.9%. In addition, in experiment [2], the RRT is 89 s. In experiment [3], this compound showed an SMT of 123.8 s.

For `Cc1ccc(N2CCN(CC(=O)NC3c4c(O)c(C)cc(C)c4CC3(C)C)CC2)cc1Cl` (configuration not stated), the SVT in experiment [1] worked out at 90.5%. This compound also registered an RRT in experiment [2] of 103.9 s. Moreover, in experiment [3], the SMT amounted to 117.7 s.

`COc1cccc(N2CCN(CCC(=O)NC3c4c(O)c(C)cc(C)c4CC3(C)C)CC2)c1` (configuration not stated): the SVT in experiment [1] was determined as 91.8%. Further, the RRT in experiment [2] was found to be 98 s. For the same compound, the SMT in experiment [3] is reported as 92.4 s.

Take `Cc1cc(C)c2c(c1O)C(NC(=O)CN1CCN(c3cccc(Br)c3)CC1)C(C)(C)C2` (configuration not stated): the SVT in experiment [1] is given as 83.2%. In addition, the RRT in experiment [2] was 81.8 s. The compound further came in with an SMT in experiment [3] of 91 s.

As for `COc1cccc(N2CCN(CC(=O)NC3c4c(O)ccc(C)c4CC3(C)C)CC2)c1` (configuration not stated), the SVT in experiment [1] stood at 97.2%. Moreover, in experiment [2], the RRT is 62.9 s. The compound also had an SMT in experiment [3] of 64.7 s.
